Results as given in ChEMBL document CHEMBL5620400, “Design, synthesis, antiviral evaluation, and In silico studies of acrylamides targeting nsP2 from Chikungunya virus” (Eur J Med Chem, 2023).

Legend:
[1] = Selectivity index, ratio of CC50 for African green monkey Vero cells to EC50 for CHIKV; assay type: toxicity; conditions: read-out: Selectivity Index
[2] = Cytotoxicity against african green monkey Vero cells assessed as cell viability measured after 48 hrs by MTT assay; assay type: toxicity, cell-based; conditions: chlorocebus sabaeus
[3] = system: Chikungunya virus; assay: Antiviral activity against CHIKV infected african green monkey Vero cells assessed as inhibition of virus induced cytopathic effect measured after 48 hrs; assay type: functional, organism-based
[4] = target: T1, Polyprotein P1234 (Chikungunya virus (strain S27-African prototype) (CHIKV), UniProt Q8JUX6); assay: Binding affinity to CHIKV nsP2 assessed as inhibition constant by measuring fluorescence by multimode microplate reader
T1 sequence (Q8JUX6 536-1333 limits assumed): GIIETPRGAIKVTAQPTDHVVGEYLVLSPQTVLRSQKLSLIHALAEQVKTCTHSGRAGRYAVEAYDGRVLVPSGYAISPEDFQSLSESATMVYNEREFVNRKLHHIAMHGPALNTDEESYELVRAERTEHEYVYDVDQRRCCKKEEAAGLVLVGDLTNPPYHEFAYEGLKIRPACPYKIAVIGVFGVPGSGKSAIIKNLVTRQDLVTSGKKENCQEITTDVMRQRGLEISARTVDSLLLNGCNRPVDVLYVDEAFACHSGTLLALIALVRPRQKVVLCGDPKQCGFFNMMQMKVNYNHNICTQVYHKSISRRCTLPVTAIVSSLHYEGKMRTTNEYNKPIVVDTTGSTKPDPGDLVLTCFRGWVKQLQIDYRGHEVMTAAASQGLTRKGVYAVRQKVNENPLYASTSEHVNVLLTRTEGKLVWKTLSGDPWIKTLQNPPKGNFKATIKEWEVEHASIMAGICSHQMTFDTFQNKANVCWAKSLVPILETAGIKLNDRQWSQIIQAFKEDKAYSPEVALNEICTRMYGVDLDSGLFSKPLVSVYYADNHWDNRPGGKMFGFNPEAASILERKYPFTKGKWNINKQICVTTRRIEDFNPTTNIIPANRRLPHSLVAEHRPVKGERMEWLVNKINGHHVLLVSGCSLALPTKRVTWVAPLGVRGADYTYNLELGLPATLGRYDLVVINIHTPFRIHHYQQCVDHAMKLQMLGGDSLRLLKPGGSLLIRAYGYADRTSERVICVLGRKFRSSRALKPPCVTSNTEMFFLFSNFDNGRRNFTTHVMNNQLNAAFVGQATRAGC

[5] = system: Sindbis virus; assay: Antiviral activity against SINV infected african green monkey Vero cells assessed as reduction of plaque formation at 100 uM measured after 48 hrs relative to control; assay type: functional
[6] = system: Sindbis virus; assay: Antiviral activity against SINV infected african green monkey Vero cells assessed as reduction in viral titer measured after 24 hrs by plaque assay; assay type: functional, organism-based
[7] = target: T1, Polyprotein P1234; assay: Binding affinity to CHIKV nsP2 assessed as equilibrium dissociation constant by isothermal titration calorimetry
[8] = target: T1, Polyprotein P1234; assay: Inhibition of CHIKV nsP2 protease activity assessed as decrease in the fluorescence signal using peptide substrate measured for 20 mins by FRET analysis
[9] = system: Chikungunya virus; assay: Antiviral activity against CHIKV infected african green monkey Vero cells assessed as inhibition of virus induced cytopathic effect by measuring virus positive cells at 50 uM measured after 48 hrs by flow cytometry relative to control; assay type: functional; design: scale not given: the % may be the effect or the level left
[10] = Antiviral activity against […] infected african green monkey Vero cells assessed as reduction in viral RNA copies measured per uL at 50 uM measured after 24 hrs (reference value: 1.4 x […] vRNA copy numbers/uL); assay type: functional

| SMILES | selectivity ratio [1] | CC50 at 48 h [2] [µM] | EC50 [3] [µM] | Ki [4] [µM] | Imax [5] [%] | EC50 [6] [µM] | Kd [7] [µM] | IC50 [8] [µM] | Activity [9] [%] | Activity [10] |
| --- | --- | --- | --- | --- | --- | --- | --- | --- | --- | --- |
| O=C(/C=C/c1ccc(Cl)cc1Cl)Nc1ccccc1 | > 4.17 | > 200 | 47.9 | 92.3 | 88.77 | < 3.12 | 159 | 20 | – | – |
| O=C(/C=C/c1ccc(Br)cc1)Nc1ccccc1 | – | – | – | 182 | >79.9 | 3.2 | 218 | 15.2 | – | – |
| COc1ccccc1/C=C/C(=O)Nc1ccccc1 | > 7.72 | > 200 | 25.9 | 2.3 | 58 | 73.1 | 198 | 0.95 | – | – |
| O=C(/C=C/c1ccc(C(F)(F)F)cc1)Nc1ccccc1 | 31.8 | 165 | 5.2 | 48.6 | 95.76 | 0.95 | 127 | 12.5 | 35.8 | 720000 |
